# Source: patent US12482566B2, “Systems and methods for predicting cancer metastasis and screening of drugs” (MESTASTOP SOLUTIONS PRIVATE LIMITED, priority 2020, dated 2025)
# System: inducible engineered cell
# Assay: Mesenchymal to Epithelial transition (MET) assay (D11), plasticity ratio from E-Cadherin and Vimentin markers
# Assay type: cell-based
# Details: 10 mM RA; FIG. 12A; E-Cadherin (AF 647), Vimentin (AF 488); PR with no RA 1.3
# Source text: FIGS. 12A and 12B depict an assay, Mesenchymal to Epithelial transition (MET) (D11), at various concentrations of Retinoic acid (RA) assessing markers E-Cadherin and Vimentin; and RA effect on expression of E-Cadherin and Vimentin in SW480 clone 1C3, respectively, according to embodiments as disclosed herein;
# FIGS. 12A and 12B are representations depicting assay for Mesenchymal to Epithelial transition (MET) (D11), at various concentrations of Retinoic acid (RA) measuring markers E-Cadherin and Vimentin; and RA effect on expression of E-Cadherin and Vimentin in SW480 clone 1C3, respectively. […] FIGS. 15A, 15B and 15C are representations depicting assay for Exosome vesicles secretion and uptake (D14), showing standard curve of exosome quantification; exosome secretion in colon cancer cells; and exosome uptake in cell lines.
# Mesenchymal to Epithelial transition (MET) is the ability of the tumor cells to change from the moving cellular form, back to the growing cellular form. This is measured by detecting the change in the epithelial and mesenchymal cell markers, once cells are treated with agents promoting MET. […] Flow cytometry is used, along with imaging techniques like fluorescence markers using multiple proteins as markers, including but not limited to E cadherin, Vimentin, N Cadherin, Epcam, CD 133, CD 44, to measure MET. […]
smiles,measurement,value
"CC1=C(/C=C/C(C)=C/C=C/C(C)=C/C(=O)O)C(C)(C)CCC1 [RA, Retinoic acid]","PR (plasticity ratio, mesenchymal marker Vimentin to epithelial marker E-Cadherin)",0.56
